Among the data in ChEMBL document CHEMBL1126502, “Enhancement of binding of quaternary ammonium derivatives of chlorpromaxine to dopamine D-2 receptors by the addition of a H-bonding group” (Bioorg Med Chem Lett, 1993) are Ki values, retold here.

Chain of D(2) dopamine receptor (P61169 whole entry): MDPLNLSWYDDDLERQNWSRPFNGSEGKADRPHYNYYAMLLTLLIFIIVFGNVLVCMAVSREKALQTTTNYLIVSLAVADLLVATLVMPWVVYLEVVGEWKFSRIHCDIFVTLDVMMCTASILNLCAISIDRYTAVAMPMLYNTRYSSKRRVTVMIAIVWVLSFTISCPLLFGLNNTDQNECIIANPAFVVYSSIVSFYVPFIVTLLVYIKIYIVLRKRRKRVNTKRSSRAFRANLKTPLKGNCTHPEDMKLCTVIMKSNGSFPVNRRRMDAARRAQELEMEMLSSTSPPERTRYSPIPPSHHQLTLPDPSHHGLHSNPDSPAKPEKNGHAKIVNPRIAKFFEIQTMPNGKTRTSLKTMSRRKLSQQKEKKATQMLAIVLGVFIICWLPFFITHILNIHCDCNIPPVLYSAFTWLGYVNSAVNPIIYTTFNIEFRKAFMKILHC

The assay addresses D(2) dopamine receptor (Rattus norvegicus, UniProt P61169). Nature of the assay: Tested for Competitive binding inhibition of [3H]spiperone to Dopamine receptor D2 in rat striatal membrane. It counts as cell membranes.
As for `C[N+](C)(C)NCCN1c2ccccc2Sc2ccc(Cl)cc21`, the Ki turned out to be 4.88 µM. The result for `C[N+](C)(N)CCCN1c2ccccc2Sc2ccc(Cl)cc21` reads 0.82 µM; that for `C[N+](C)(C)CCCN1c2ccccc2Sc2ccc(Cl)cc21`, 8.57 µM.
